In patent publication US9816993B2, “Magnetically induced microspinning for super-detection and super-characterization of biomarkers and live cells” (THE REGENTS OF THE UNIVERSITY OF MICHIGAN, priority 2011, dated 2017):

System: HeLa cell
Assay: Cell magnetorotation of a single HeLa cell: rotation period and morphology under toxic agents
Format: cell-based
Excerpt: The Y axis is the normalized period, and the X axis is time in seconds. Lines show trend between connected points. For each graph, in the pictures above it, the bottom pictures show snapshots of the rotated cell at each indicated time, while the schematic pictures on top of it show the corresponding cell shapes (fixated cell not shown). Dark discs represent the cell cytoplasm and membrane, while grey spots show the vesicles formed at the surface, if any.
In this example, cancer cells loaded with nanoparticles were magnetically separated and resuspended in different media, such as culture medium (DMEM), DMEM with 5% Ethanol, or DMEM with 75% deionized water. Each medium was used to verify different aspects of this method: DMEM was used as a control, ethanol was used as a cytotoxic agent, and, to promote stress through cell swelling, we used a large proportion of DI water, reversing the ionic balance between the inside and outside of the cell. Note that a large concentration of salt in solution has the opposite effect on the cell, namely shrinking it. The cells in suspension were then pipetted onto a LIVE CELL ARRAY plate (NUNC), where the array has 100 μm wide wells, which provide adequate compartments for single cells to rotate and be analyzed. Optical scattering signals were recorded and the changes in the rotation period were measured for the different media (FIG. 2).
Cell swelling generally occurs because of the osmotic pressure created either by an ionic imbalance, as mentioned earlier, or by a lack of nutrients. Either way, the cell expands to cope with the imbalance of the chemicals it needs for maintaining its metabolism. To reach ionic disparity, we used DI water (FIG. 2B).

Compound	rise of cell rotation period (Cisplatin 100 ug/ml (red line on FIG. 2D))	time for blebs to appear at the surface of the cell (Cisplatin at 100 ug/ml)	cell death (single HeLa cell in DMEM with 100 ug/ml Cisplatin)	time for blebs to appear at the surface of the cell (5% ethanol in DMEM)	rise of cell rotation period (5% ethanol in DMEM (FIG. 2C))	cell death (single HeLa cell in DMEM with 5% ethanol)
N.N.[Cl][Pt][Cl] [Cisplatin]	550%	several hours	cell death is provoked	–	–	–
CCO [ethanol]	–	–	–	around 30 minutes	550%	cell death is provoked
